Publication PMC10847306, “The antibacterial activity and mechanism of a novel peptide MR-22 against multidrug-resistant Escherichia coli” (Frontiers in Cellular and Infection Microbiology, 2024)

Key:
E. coli E19 = assay: Membrane permeability assay (PI, flow cytometry); assay type: cell-based, Escherichia coli; conditions: 1 h, untreated 2.13%
Experimental: (§1) According to the previously described method ([Fadhel Abbas Albaayit et al., 2022]), bacterial suspensions were diluted with PBS to concentration of 1.0×10^6 CFU/mL. […] 10 μM of propidium iodide (PI; Sigma, US) was added to each group and incubated at 37°C for 15 min in the dark. The samples were analyzed using a CytoFLEX flow cytometry (Beckman Coulter, USA), and the positive rate of PI was utilized as an indicator of bacterial membrane permeability.

E. coli ATCC 25922 = assay: Membrane permeability assay (PI, flow cytometry); assay type: cell-based, Escherichia coli; conditions: 1 h, untreated 0.79%
Experimental: as §1

H-MAKRRKKAKKKAKKAKKRRRRR-NH2 [MR-22]
percentage of PI-positive cells (E. coli E19; 1 × MIC): 7.83%
percentage of PI-positive cells (E. coli E19; 2 × MIC): 14.35%
percentage of PI-positive cells (E. coli E19; 4 × MIC): 25.14%
PI fluorescence signals (PI-positive cells) (E. coli ATCC 25922; 1 × MIC): 9.19%
PI fluorescence signals (PI-positive cells) (E. coli ATCC 25922; 2 × MIC): 39.10%
PI fluorescence signals (PI-positive cells) (E. coli ATCC 25922; 4 × MIC): 53.20%
